Structures can show the parent of a compound that is named as a salt. Where two headings read alike, the source gives them in different places.
Biological target: T1, Tau P301L (Homo sapiens, UniProt P10636, P618L)
T1 construct: expressed in transfected cells
Experiment: In vitro tau degradation assay in CHOK1 Tau P301L cells (sarkosyl insoluble tau, WES)
Assay type: cell-based
Conditions: CHO-K1, relative to DMSO doxycycline control, read-out: Tau Protein Degradation effect at 1 μM
In short: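 T-Rex CHOK1 clone D1 with doxycycline-inducible (1 μg/ml) Tau P301L treated 48 h with compound at 1 μM, doxycycline removed for the final 24 h. Sarkosyl-insoluble tau quantified by WES capillary electrophoresis with Tau1 antibody, expressed relative to DMSO doxycycline control and binned as ≤50% or >50% remaining.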

[1] = CHOK1 Tau P301L cells, remaining tau in sarkosyl insoluble pellet, 48 hours with test compound at 1 μM, doxycycline removed for last 24 hours
[2] = remaining tau protein in sarkosyl insoluble pellet, CHOK1 Tau P301L cells treated 48 hours with test compound at 1 μM, doxycycline removed for the last 24 hours

T1 sequence (P10636 1-441 isoform P10636-8 P301L): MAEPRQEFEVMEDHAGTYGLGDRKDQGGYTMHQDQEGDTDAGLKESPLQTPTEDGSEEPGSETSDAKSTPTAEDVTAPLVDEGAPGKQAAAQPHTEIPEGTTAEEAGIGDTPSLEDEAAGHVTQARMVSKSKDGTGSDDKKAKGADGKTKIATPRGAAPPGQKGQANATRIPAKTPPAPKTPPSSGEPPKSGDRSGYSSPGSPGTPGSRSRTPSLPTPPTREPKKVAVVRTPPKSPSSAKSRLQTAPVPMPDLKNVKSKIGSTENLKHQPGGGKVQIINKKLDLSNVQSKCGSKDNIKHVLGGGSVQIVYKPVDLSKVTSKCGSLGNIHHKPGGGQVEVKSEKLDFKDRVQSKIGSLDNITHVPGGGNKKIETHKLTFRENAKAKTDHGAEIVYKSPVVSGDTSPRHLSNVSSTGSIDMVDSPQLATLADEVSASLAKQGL

| remaining activity at 1 µM [1] [%] | remaining activity at 1 µM [2] [%] | SMILES |
| --- | --- | --- |
| < 50 | – | O=C1CCC(N2C(=O)c3cc(F)c(N4CCC(CN5CC6(C5)CN(C[C@H]5C[C@H](Oc7ccc(-c8ccc9c%10cnccc%10n(C(F)F)c9c8)cn7)C5)C6)CC4)cc3C2=O)C(=O)N1 (stereo partly drawn) [Compound 640, 5-(4-((6-(((1r,3r)-3-((5-(5-(difluoromethyl)-5H-pyrido[4,3-b]indol-7-yl)pyridin-2-yl)oxy)cyclobutyl)methyl)-2,6-diazaspiro[3.3]heptan-2-yl)methyl)piperidin-1-yl)-2-(2,6-dioxopiperidin-3-yl)-6-fluoroisoindoline-1,3-dione] |
| < 50 | – | O=C1CCC(N2C(=O)c3ccc(N4CCC(OC5CCN(C[C@H]6C[C@H](Oc7ncc(-c8ccc9c%10cnccc%10n(C(F)F)c9c8)cc7F)C6)CC5)CC4)cc3C2=O)C(=O)N1 (stereo partly drawn) [Compound N637] |
| > 50 | – | CC1c2ccc(-c3ccc4c5cnccc5n(C(F)F)c4c3)cc2CCN1CCCCCOc1ccc2c(c1)C(=O)N(C1CCC(=O)NC1=O)C2=O (stereo not drawn) [Compound 603, 5-((5-(6-(5-(difluoromethyl)-5H-pyrido[4,3-b]indol-7-yl)-1-methyl-3,4-dihydroisoquinolin-2(1H)-yl)pentyl)oxy)-2-(2,6-dioxopiperidin-3-yl)isoindoline-1,3-dione] |
| – | < 50 | O=C1CCC(N2C(=O)c3ccc(OCCCN4CCC5(CC4)CN(c4ncc(-c6ccc7c8cnccc8n(C(F)F)c7c6)cc4F)C5)cc3C2=O)C(=O)N1 (stereo not drawn) [Compound 568, 5-(3-(2-(5-(5-(difluoromethyl)-5H-pyrido[4,3-b]indol-7-yl)-3-fluoropyridin-2-yl)-2,7-diazaspiro[3.5]nonan-7-yl)propoxy)-2-(2,6-dioxopiperidin-3-yl)isoindoline-1,3-dione] |
| > 50 | – | O=C1CCC(N2C(=O)c3ccc(OCCC4CCN(C[C@H]5C[C@H](Oc6ncc(-c7ccc8c9cnccc9n(C(F)F)c8c7)cc6F)C5)CC4)cc3C2=O)C(=O)N1 (stereo partly drawn) [Compound 636, 5-(2-(1-(((1r,3r)-3-((5-(5-(difluoromethyl)-5H-pyrido[4,3-b]indol-7-yl)-3-fluoropyridin-2-yl)oxy)cyclobutyl)methyl)piperidin-4-yl)ethoxy)-2-(2,6-dioxopiperidin-3-yl)isoindoline-1,3-dione] |
| – | < 50 | Cn1c2ccncc2c2ccc(-c3ccc(N4CCC(CCN5CCN(c6ccc7c(c6)C(=O)N(C6CCC(=O)NC6=O)C7=O)CC5)CC4)nc3)cc21 (stereo not drawn) [Compound 397, 2-(2,6-dioxopiperidin-3-yl)-5-(4-(2-(1-(5-(5-methyl-5H-pyrido[4,3-b]indol-7-yl)pyridin-2-yl)piperidin-4-yl)ethyl)piperazin-1-yl)isindoline-1,3-dione] |
| – | < 50 | Cn1c2ccncc2c2ccc(-c3ccc(O[C@H]4C[C@H](CN5CCC(CC6CCN(c7ccc8c(c7)C(=O)N(C7CCC(=O)NC7=O)C8=O)CC6)CC5)C4)nc3)cc21 (stereo partly drawn) [Compound 485, 2-(2,6-dioxopiperidin-3-yl)-5-(4-((1-(((1r,3r)-3-((5-(5-methyl-5H-pyrido[4,3-b]indol-7-yl)pyridin-2-yl)oxy)cyclobutyl)methyl)piperidin-4-yl)methyl)piperidin-1-yl)isoindoline-1,3-dione] |
| > 50 | – | O=C1CCC(N2Cc3nc(N4CCN(CCC5CCN(c6ncc(-c7ccc8c9cnccc9n(C(F)F)c8c7)cc6F)CC5)CC4)ccc3C2=O)C(=O)N1 (stereo not drawn) [Compound 607, 3-(2-(4-(2-(1-(5-(5-(difluoromethyl)-5H-pyrido[4,3-b]indol-7-yl)-3-fluoropyridin-2-yl)piperidin-4-yl)ethyl)piperazin-1-yl)-5-oxo-5,7-dihydro-6H-pyrrolo[3,4-b]pyridin-6-yl)piperidine-2,6-dione] |
| – | < 50 | O=C1CCC(N2C(=O)c3ccc(C#CCN4CCN(CCC5CCN(c6ccc7c8cnccc8n(C(F)F)c7c6)CC5)CC4)cc3C2=O)C(=O)N1 (stereo not drawn) [Compound 586, 5-(3-(4-(2-(1-(5-(difluoromethyl)-5H-pyrido[4,3-b]indol-7-yl)piperidin-4-yl)ethyl)piperazin-1-yl)prop-1-yn-1-yl)-2-(2,6-dioxopiperidin-3-yl)isoindoline-1,3-dione] |
| – | < 50 | Nc1cccc2cnc(-n3ccc4cc(OCCOCCOCCOCCOCCOc5ccc6c(c5)C(=O)N(C5CCC(=O)NC5=O)C6=O)ncc43)cc12 (stereo not drawn) [Compound 352, 5-((14-((1-(5-aminoisoquinolin-3-yl)-1H-pyrrolo[2,3-c]pyridin-5-yl)oxy)-3,6,9, 12-tetraoxatetradecyl)oxy)-2-(2,6-dioxo-piperidin-3-yl) isoindoline-1,3-dione] |
| – | > 50 | Nc1cccc2cnc(-n3ccc4cc(N5CCC(CCN6CCN(c7ccc8c(c7)C(=O)N(C7CCC(=O)NC7=O)C8=O)CC6)CC5)ncc43)cc12 (stereo not drawn) [Compound 480, 5-[4-(2-[1-[1-(5-aminoisoquinolin-3-yl)pyrrolo[2,3-c]pyridin-5-yl]piperidin-4-yl]ethyl)piperazin-1-yl]-2-(2,6-dioxopiperidin-3-yl)isoindole-1,3-dione] |
| – | < 50 | O=C1CCC(N2C(=O)c3ccc(N4CCN(CCC5CCN(c6ncc(-c7ccc8c9cnccc9n(C(F)F)c8c7)cc6F)CC5)CC4)cc3C2=O)C(=O)N1 (stereo not drawn) [Compound 532, 5-[4-[2-[1-[5-[5-(difluoromethyl)pyrido[4,3-b]indol-7-yl]-3-fluoro-2-pyridyl]-4-piperidyl]ethyl]piperazin-1-yl]-2-(2,6-dioxo-3-piperidyl)isoindoline-1,3-dione trifluoroacetate] |
| < 50 | – | COc1cc(N2CCN(CCC3CCN(c4ncc(-c5ccc6c7cnccc7n(C(F)F)c6c5)cc4F)CC3)CC2)cc2c1C(=O)N(C1CCC(=O)NC1=O)C2=O (stereo not drawn) [Compound 635, 6-(4-(2-(1-(5-(5-(difluoromethyl)-5H-pyrido[4,3-b]indol-7-yl)-3-fluoropyridin-2-yl)piperidin-4-yl)ethyl)piperazin-1-yl)-2-(2,6-dioxopiperidin-3-yl)-4-methoxyisoindoline-1,3-dione] |
| – | > 50 | Cc1ncsc1-c1ccc([C@H](C)NC(=O)[C@@H]2C[C@@H](O)CN2C(=O)[C@@H](c2cc(OCCN3CCC(OC4CN(c5ccc(-c6ccc7c8cnccc8n(C)c7c6)cn5)C4)CC3)no2)C(C)C)cc1 (single isomer, unassigned) [Compound 467] |
| – | > 50 | Cn1c2ccncc2c2ccc(-c3ccc(O[C@H]4C[C@H](CN5CCC(CCOc6ccc7c(c6)C(=O)N(C6CCC(=O)NC6=O)C7=O)CC5)C4)nc3)cc21 (stereo partly drawn) [Compound 478, 2-(2,6-dioxopiperidin-3-yl)-5-(2-(1-(((1r,3r)-3-((5-(5-methyl-5H-pyrido[4,3-b]indol-7-yl)pyridin-2-yl)oxy)cyclobutyl)methyl)piperidin-4-yl)ethoxy)isoindoline-1,3-dione] |

| SMILES | remaining activity at 1 µM [1] [%] | remaining activity at 1 µM [2] [%] |
| --- | --- | --- |
| O=C1CCC(N2C(=O)c3ccc(N4CCC(CN5CCC(O[C@H]6C[C@H](Oc7ccc8c9cnccc9n(C(F)F)c8c7)C6)CC5)CC4)cc3C2=O)C(=O)N1 (stereo partly drawn) [Compound 605, 5-(4-((4-((1r,3r)-3-((5-(difluoromethyl)-5H-pyrido[4,3-b]indol-7-yl)oxy)cyclobutoxy)piperidin-1-yl)methyl)piperidin-1-yl)-2-(2,6-dioxopiperidin-3-yl)isoindoline-1,3-dione] | < 50 | – |
| Cc1ncsc1-c1ccc([C@H](C)NC(=O)[C@@H]2C[C@@H](O)CN2C(=O)[C@@H](c2cc(N3CCN(CCO[C@H]4C[C@H](Oc5ccc(-c6ccc7c8cnccc8n(C)c7c6)cn5)C4)CC3)no2)C(C)C)cc1 [Compound 391, (2S,4R)-4-hydroxy-1-((R)-3-methyl-2-(3-(4-(2-((1r,3R)-3-((5-(5-methyl-5H-pyrido[4,3-b]indol-7-yl)pyridin-2-yl)oxy)cyclobutoxy)ethyl)piperazin-1-yl)isoxazol-5-yl)butanoyl)-N-((S)-1-(4-(4-methylthiazol-5-yl)phenyl)ethyl) pyrrolidine-2-carboxamide] | – | < 50 |
| Cn1c2ccncc2c2ccc(-c3ccc(O[C@H]4C[C@H](OC5CCN(CCN6CCN(c7ccc8c(c7)C(=O)N(C7CCC(=O)NC7=O)C8=O)CC6)CC5)C4)nc3)cc21 (stereo partly drawn) [Compound 341, 2-(2,6-dioxopiperidin-3-yl)-5-(4-(2-(4-((1r,3r)-3-((5-(5-methyl-5H-pyrido[4,3-b]indol-7-yl)pyridin-2-yl)oxy)cyclobutoxy)piperidin-1-yl)ethyl)piperazin-1-yl) isoindoline-1,3-dione] | – | > 50 |
| Cn1c2ccncc2c2ccc(-c3ccc(O[C@H]4C[C@H](Oc5ccc(C#CCNCCCc6ccc7c(c6)CN(C6CCC(=O)NC6=O)C7=O)nc5)C4)nc3)cc21 (stereo partly drawn) [Compound 346, 3-(5-(3-((3-(5-((1r,3r)-3-((5-(5-methyl-5H-pyrido[4,3-b]indol-7-yl)pyridin-2-yl)oxy)cyclobutoxy)pyridin-2-yl)prop-2-yn-1-yl)amino)propyl) 1-oxoisoindolin-2-yl)piperidine-2,6-dione] | – | > 50 |
| CC(C)N(C1CCN(c2ncc(-c3ccc4c5cnccc5n(C(F)F)c4c3)cc2F)CC1)[C@H]1C[C@H](Oc2ccc3c(c2)C(=O)N(C2CCC(=O)NC2=O)C3=O)C1 (stereo partly drawn) [Compound 638] | < 50 | – |
| Cc1ncsc1-c1ccc([C@H](C)NC(=O)[C@@H]2C[C@@H](O)CN2C(=O)[C@@H](NC(=O)COCCCCCN2CCC(OC3CC(Oc4ccc(-c5ccc6c7cnccc7n(C)c6c5)cn4)C3)CC2)C(C)(C)C)cc1 (stereo partly drawn) [Compound 377, (2S,4R)-1-((S)-3,3-dimethyl-2-(2-((5-(4-((1r,3r)-3-((5-(5-methyl-5H-pyrido[4,3-b]indol-7-yl)pyridin-2-yl)oxy)cyclobutoxy)piperidin-1-yl)pentyl)oxy)acetamido)butanoyl)-4-hydroxy-N-((S)-1-(4-(4-methythiazol-5-yl)phenyl)ethyl) pyrrolidine-2-carboxamide] | – | > 50 |
